PubChem BioAssay AID2060893 (Molecular Pharmacology Branch, DTP, NCI, 2025)
“And” between values parts separate entries of the source, which are not always exact repeats. Equal entries are not always repeated.

The compounds below were run on K86415-001-R-J1-PDC complex spheroids, viability (assay: Anticancer human tumor K86415-001-R-J1-PDC patient-derived lung adenocarcinoma cell line growth inhibition [RAS]). Settings: compound 0.00316 µM; hits give low values.
From the text: RAS pathway inhibitors in Combinations in Complex Spheroids
A high-throughput screen of multi-cell type tumor spheroids was designed to identify active combinations of RAS pathway inhibitors and targeted small molecules. Complex spheroids include a stromal component modeled by human endothelial cells (HUVEC) and fibroblasts modeled by human mesenchymal stem cells (MSCs). The concentration ranges selected for each drug and investigational agent were based upon clinically achievable concentrations if the clinical Cmax of the agent was known.
Compounds. The drugs and investigational agents: abemaciclib (NSC768073), cobimetinib (NSC768068), divarasib (GDC6063, NSC841802), docetaxel (NSC628503), GDC-1971 (RLY-1971, NSC841576), gemcitabine (NSC613327), inavolisib (NSC800729), ipatasertib (NSC767898), KB-0742 (NSC834161), MRTX-1133 (NSC836407), osimertinib (NSC779217), RMC-4630 (NSC839698), RMC-6236 (NSC851965), RMC-6291 (NSC852671), Ro-3306 (NSC812927), sapanisertib (NSC764658), SN-38 (NSC673596), staurosporine (NSC755774), SY5609 (NSC837396), and tovorafenib (DAY101, NSC766906), were obtained from the National Cancer Institute (NCI) Developmental Therapeutics Program Chemical Repository. The FDA-approved anticancer drug set is available from the NCI Developmental Therapeutics Program. […] The stock solutions were prepared in dimethyl sulfoxide (DMSO, Sigma-Aldrich, St. Louis, MO, cat. D2650) at 800-fold the tested concentration and stored at -70 degrees C prior to their use. All drugs and investigational agents were tested over a range starting from a high concentration at or near the clinical Cmax and decreasing in half-log increments. If the clinical Cmax for an agent had not been determined, the highest concentration tested was 10 microM.
Cell Culture. All cells were maintained in an incubator at 37 degrees C and 5% CO2 with 95% humidity. The PDC lines were cultured according to standard operating procedures established by the NCI PDMR. All PDCs were thawed and cultured in Matrigel-coated flasks prepared with a working solution of 1X Ham's F-12 nutrient mix, without supplementation (Invitrogen, Waltham, MA, cat. 11765054), 100 U/mL penicillin-streptomycin (Invitrogen, cat. 15140122), and 2.5% Matrigel (Corning Inc., Corning, NY, cat. 354248) for the first three passages. The 362531-283-R-J2-PDC and 782815-120-R-J1-PDC lines were cultured in 6C/Colon 1B media, which includes advanced DMEM/F-12 (Thermo Fisher Scientific, cat. 12634028), 10 mM HEPES (Thermo Fisher Scientific, cat. 15630080), 1X GlutaMAX supplement (Thermo Fisher Scientific, cat. 35050061), 0.1 mg/mL primocin (InvivoGen, San Diego, CA, cat. ant-pm-2), 10% defined fetal bovine serum, heat inactivated (HyClone Laboratories Inc., Logan, UT, cat. SH30070.03HI), 50% L-WRN conditioned media (ATCC, cat. CRL-3276), 1.25 mM N-Acetyl-L-cysteine (Sigma-Aldrich, cat. A9165), 10 mM nicotinamide (Sigma-Aldrich, cat. N0636), 1X B-27 supplement (Thermo Fisher Scientific, cat. 17504044), 1X N-2 supplement (Thermo Fisher Scientific, cat. 17502048), 50 ng/mL human EGF (Thermo Fisher Scientific, cat. PHG0311), and 10 microM Y-27632 dihydrochloride (Tocris Bioscience, cat. 1254). The K12877-001-R-J1-PDC line was cultured in 6I media, which includes all 6C/Colon 1B media plus 10 ng/mL human FGF-10 (PeproTech, cat. 100-26), 1 ng/mL human FGF-2 (PeproTech, cat. 100-18B), 1 µM prostaglandin E2 (Tocris Bioscience, cat. 2296), […] hydrocortisone (Sigma-Aldrich, cat. H4001), and […] bovine insulin (Sigma-Aldrich, cat. I6634). The K86415-001-R-J1-PDC line was cultured in 6D media, which includes all 6C/Colon 1B media components minus the L-WRN conditioned media. The 485176-168-R4-J1-PDC was cultured in PANC media, which includes all 6C/Colon 1B media plus 100 ng/mL human FGF-10 (PeproTech, cat. 100-26), 500 nM SB-431542 (Selleckchem, cat. S1067), and 10 nM gastrin (Tocris Bioscience, cat. 3006). […]
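Also: spheroids exposed to agents for seven days before readout.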

SMILES	viability, T/C
Nc1ccn(C2OC(CO)C(O)C2(F)F)c(=O)n1 (stereo not drawn)	106% [middle of 4 runs]

Same assay, conditions: compound 0.01 µM; hits give low values

SMILES	viability, T/C
Nc1ccn(C2OC(CO)C(O)C2(F)F)c(=O)n1 (stereo not drawn)	97.5% [middle of 4 runs]

Same assay, conditions: compound 0.0316 µM; hits give low values

SMILES	viability, T/C
C#Cc1c(F)ccc2cc(O)cc(-c3ncc4c(N5CC6CCC(C5)N6)nc(OCC56CCCN5CC(F)C6)nc4c3F)c12 (stereo not drawn)	101% [middle of 8 runs]
CC(=O)OC12COC1CC(O)C1(C)C(=O)C(O)C3=C(C)C(OC(=O)C(O)C(NC(=O)OC(C)(C)C)c4ccccc4)CC(O)(C(OC(=O)c4ccccc4)C21)C3(C)C (stereo not drawn)	32.8% [middle of 4 runs]
CC(C)NCC(C(=O)N1CCN(c2ncnc3c2C(C)CC3O)CC1)c1ccc(Cl)cc1 (stereo not drawn)	109% [middle of 4 runs]
CC(Nc1ccc2c(c1)OCCn1cc(N3C(=O)OCC3C(F)F)nc1-2)C(N)=O (stereo not drawn)	94.1% [middle of 4 runs]
CC1(O)CCCC1n1c(=O)c(C(F)F)cc2cnc(NC3CCN(S(C)(=O)=O)CC3)nc21 (stereo not drawn)	83.8% and 84.3% and 80.5% (2×)
CCC(CC)c1cc(NC2CCC(N)C2)n2nccc2n1 (stereo not drawn)	106% and 116% (2×) and 92.8%
C[C@@H](NC(=O)c1ncnc(N)c1Cl)c1ncc(C(=O)Nc2cc(C(F)(F)F)c(Cl)cn2)s1	113% [middle of 4 runs]
Cc1nc(N2CCC3(CC2)COC(C)C3N)c(CO)nc1Sc1ccnc(N)c1Cl (stereo not drawn)	76.3% [middle of 4 runs]
NC1c2ccccc2OC12CCN(c1cnc3c(N4CCCc5ncccc54)n[nH]c3n1)CC2 (stereo not drawn)	46.3% [middle of 4 runs]
Nc1ccn(C2OC(CO)C(O)C2(F)F)c(=O)n1 (stereo not drawn)	78.7% [middle of 4 runs]

Same assay, conditions: compound 0.1 µM; hits give low values

SMILES	viability, T/C
C#Cc1c(F)ccc2cc(O)cc(-c3ncc4c(N5CC6CCC(C5)N6)nc(OCC56CCCN5CC(F)C6)nc4c3F)c12 (stereo not drawn)	106% [middle of 8 runs]
CC(=O)OC12COC1CC(O)C1(C)C(=O)C(O)C3=C(C)C(OC(=O)C(O)C(NC(=O)OC(C)(C)C)c4ccccc4)CC(O)(C(OC(=O)c4ccccc4)C21)C3(C)C (stereo not drawn)	30.1% [middle of 4 runs]
CC(Nc1ccc2c(c1)OCCn1cc(N3C(=O)OCC3C(F)F)nc1-2)C(N)=O (stereo not drawn)	86% [middle of 4 runs]
CC1(O)CCCC1n1c(=O)c(C(F)F)cc2cnc(NC3CCN(S(C)(=O)=O)CC3)nc21 (stereo not drawn)	87.1% [middle of 4 runs]
CCC(CC)c1cc(NC2CCC(N)C2)n2nccc2n1 (stereo not drawn)	115% [middle of 4 runs]
C[C@@H](NC(=O)c1ncnc(N)c1Cl)c1ncc(C(=O)Nc2cc(C(F)(F)F)c(Cl)cn2)s1	113% [middle of 4 runs]
Cc1nc(N2CCC3(CC2)COC(C)C3N)c(CO)nc1Sc1ccnc(N)c1Cl (stereo not drawn)	53.6% [middle of 4 runs]
NC1c2ccccc2OC12CCN(c1cnc3c(N4CCCc5ncccc54)n[nH]c3n1)CC2 (stereo not drawn)	29.9% [middle of 4 runs]
Nc1ccn(C2OC(CO)C(O)C2(F)F)c(=O)n1 (stereo not drawn)	61.3% [middle of 4 runs]

Same assay, conditions: compound 0.316 µM; hits give low values

SMILES	viability, T/C
C#Cc1c(F)ccc2cc(O)cc(-c3ncc4c(N5CC6CCC(C5)N6)nc(OCC56CCCN5CC(F)C6)nc4c3F)c12 (stereo not drawn)	88.2% [middle of 8 runs]
CC(=O)OC12COC1CC(O)C1(C)C(=O)C(O)C3=C(C)C(OC(=O)C(O)C(NC(=O)OC(C)(C)C)c4ccccc4)CC(O)(C(OC(=O)c4ccccc4)C21)C3(C)C (stereo not drawn)	31% [middle of 4 runs]
CC(C)NCC(C(=O)N1CCN(c2ncnc3c2C(C)CC3O)CC1)c1ccc(Cl)cc1 (stereo not drawn)	97.9% [middle of 4 runs]
CC(Nc1ccc2c(c1)OCCn1cc(N3C(=O)OCC3C(F)F)nc1-2)C(N)=O (stereo not drawn)	71.7% [middle of 4 runs]
CC1(O)CCCC1n1c(=O)c(C(F)F)cc2cnc(NC3CCN(S(C)(=O)=O)CC3)nc21 (stereo not drawn)	65.7% [middle of 4 runs]
CCC(CC)c1cc(NC2CCC(N)C2)n2nccc2n1 (stereo not drawn)	122% [middle of 4 runs]
C[C@@H](NC(=O)c1ncnc(N)c1Cl)c1ncc(C(=O)Nc2cc(C(F)(F)F)c(Cl)cn2)s1	97.1% and 109% (2×) and 92.8%
Cc1nc(N2CCC3(CC2)COC(C)C3N)c(CO)nc1Sc1ccnc(N)c1Cl (stereo not drawn)	36.6% [middle of 4 runs]
NC1c2ccccc2OC12CCN(c1cnc3c(N4CCCc5ncccc54)n[nH]c3n1)CC2 (stereo not drawn)	22.7% [middle of 4 runs]
Nc1ccn(C2OC(CO)C(O)C2(F)F)c(=O)n1 (stereo not drawn)	31.2% [middle of 4 runs]

Same assay, conditions: compound 1 µM; hits give low values

SMILES	viability, T/C
C#Cc1c(F)ccc2cc(O)cc(-c3ncc4c(N5CC6CCC(C5)N6)nc(OCC56CCCN5CC(F)C6)nc4c3F)c12 (stereo not drawn)	65.2% [middle of 8 runs]
CC(=O)OC12COC1CC(O)C1(C)C(=O)C(O)C3=C(C)C(OC(=O)C(O)C(NC(=O)OC(C)(C)C)c4ccccc4)CC(O)(C(OC(=O)c4ccccc4)C21)C3(C)C (stereo not drawn)	34.2% [middle of 4 runs]
